We go through ten compounds from patent US11944605B2, “Rapamycin analogs and uses thereof” (Janssen Pharmaceutica NV, priority 2018, dated 2024).

The structures appear in SMILES notation.

In assay [1] the test system is pS6K1 (p-p70 S6 Kinase (Thr389)) in MCF-7 cells. As to the kind of experiment: AlphaLISA Ultra pS6K1 Assay. The assay is classed as cell-based. Particulars: Homo sapiens, 1.5 h; MCF7 cells, 90 min. The protocol: AlphaLISA Ultra pS6K1 Assay
1. Seed MCF-7 cells in Corning 3701 plate and incubate for 20˜24 hour. 12,000˜16,000 cells will be seeded in 36 μL medium per well.
2. Change the culture medium with fresh medium and incubate for another 2 hours.
3. Add 12 μL (4×) compounds into the cell plate by HAMILTON. Final DMSO concentration is 0.5%. Incubate for 90 minutes.
4. Aspirate […] by HAMILTON, 10 μL rest per well.
5. Add 10 μL 2× lysis buffer using HAMILTON; total volume in wells is 20 μL. Allow cells to shake for 30 min. Cover plate by plastic foil and store plate at −80° C. up to analysis.
6. Thaw cell lysate at RT and transfer 10 μL lysate to assay plate (Optiplate-384).
7. Add 5 μL acceptor beads into assay plate and incubation for 2 hours
8. Add 5 μL donor beads and incubation for 2 hours
9. Count the plate by EnSpire Multimode Plate Reader
A general note: Alpha assays give light when donor and acceptor beads are brought close together.

Another assay has as its system mTORC1 over mTORC2. As to the kind of experiment: mTORC1 selectivity over mTORC2 at 24 hrs (Western blot based pS6K1 and pAKT assay). The assay is classed as cell-based. The following applies: 24 hrs. The protocol: Western Blot Based pS6K1 and pAKT Assay at 24 and 48 Hour Timepoints
1. Seed six well plate with 500,000 PC3 cells per well and incubate for 20˜24 hour.
2. Add compounds into the cell plate. Incubate for 24 to 48 hours.
4. Plate is placed on ice and the media is removed via aspiration. The wells are washed with 1 mL of 1× PBS and then fully aspirated.
5. 110 μL of 1% Triton Lysis Buffer is added and each well is scraped vigorously.
6. Cell homogenates are transferred to 1.5 mL eppendorf tubes on ice and spun down at 4° C. for 10 minutes at 10,000 rpm.
9. The membranes were washed 3× with TBS-T with a 5 minute incubation between each wash then incubated with secondary antibody (LiCor IRDye 800 Donkey Anti Rabbit) for at least 30 minutes.
10. The membranes were washed 3× with TBS-T with a 5 minute incubation between each wash.
11. The gels were then incubated for 5 minutes with PBS at room temperature then imaged using a Li-Cor.
“N/A” stands for “not assayed.”

One may read the IC50 as the midpoint of a concentration-inhibition curve. A lower IC50 goes with inhibition by little substance. As to `CO[C@@H]1CC(C[C@@H](C)C2CC(=O)[C@H](C)/C=C(\C)[C@@H](O)[C@@H](OC)C(=O)[C@H](C)C[C@H](C)/C=C/C=C/C=C(\C)C(OCCOCC(F)(F)F)C[C@@H]3CC[C@@H](C)[C@@](O)(O3)C(=O)C(=O)N3CCCC[C@H]3C(=O)O2)CC[C@H]1OCCO` (stereo partly drawn) [I-77, (21E,23E,25E,26E,33R,34S,35R,36R,38S,40S,43S,44R,45R,54R)-44, 54-dihydroxy-43-[(1R)-2-[(1S,3R,4R)-4-(2-hydroxyethoxy)-3-methoxy-cyclohexyl]-1-methyl-ethyl]-45-methoxy-33, 34,35,36,46,47-hexamethyl-42-[2-(2,2,2-trifluoroethoxy)ethoxy]-65,66-dioxa-56-azatricyclohexatriaconta-21, 23,25(46),26(47)-tetraene-48,49,50,51,52-pentone], in assay [1], the 50% inhibitory concentration (IC50) is < 0.1 nM. Moreover, the “mTORC1 selective @ 24 hrs” value in the assay on mTORC1 over mTORC2 is recorded as “YES”.
Consider `CO[C@@H]1C[C@H](C[C@@H](C)[C@@H]2CC(=O)[C@H](C)/C=C(\C)[C@@H](O)[C@@H](OC)C(=O)[C@H](C)C[C@H](C)/C=C/C=C/C=C(\C)[C@@H](OCCS(=O)(=O)CCS(=O)(=O)CCO)C[C@@H]3CC[C@@H](C)[C@@](O)(O3)C(=O)C(=O)N3CCCC[C@H]3C(=O)O2)CC[C@H]1O` [I-95, (21E,23E,25E,26E,34R,35S,36R,37R,39S,41S,43S,44S,45R,46R,55R)-45, 55-dihydroxy-43-[2-[2-(2-hydroxyethylsulfonyl)ethylsulfonyl]ethoxy]-44-[(1R)-2-[(1S,3R, 4R)-4-hydroxy-3-methoxy-cyclohexyl]-1-methyl-ethyl]-46-methoxy-34,35,36,37,47,48-hexamethyl-70, 71-dioxa-56-azatricyclohexatriaconta-21,23,25(47),26(48)-tetraene-49, 50,51,52,53-pentone], for which the “mTORC1 selective @ 24 hrs” value with mTORC1 over mTORC2 is recorded as “YES”.
`CO[C@@H]1C[C@H](C[C@@H](C)[C@@H]2CC(=O)[C@H](C)/C=C(\C)[C@@H](O)[C@@H](OC)C(=O)[C@H](C)C[C@H](C)/C=C/C=C/C=C(\C)[C@@H](OCC3COCCOCCOCCO3)C[C@@H]3CC[C@@H](C)[C@@](O)(O3)C(=O)C(=O)N3CCCC[C@H]3C(=O)O2)CC[C@H]1O` (stereo partly drawn) [I-112, (28E,30E,32E,33E,36R,37S,38R,39R,41S,43S,45S,46S,48R,49R,58R)-48, 58-dihydroxy-46-[(1R)-2-[(1S,3R,4R)-4-hydroxy-3-methoxy-cyclohexyl]-1-methyl-ethyl]-49-methoxy-36, 37,38,39,50,51-hexamethyl-45-(1,4,7,10-tetraoxacyclododec-2-ylmethoxy)-72, 73-dioxa-59-azatricyclohexatriaconta-28,30,32(50),33(51)-tetraene-52, 53,54,55,56-pentone] displayed a 50% inhibitory concentration (IC50) in assay [1] of 0.1 to 1 nM. In addition, the “mTORC1 selective @ 24 hrs” value with mTORC1 over mTORC2 was “YES”.
The matching figures for `COCCOCCO[C@H]1C[C@@H]2CC[C@@H](C)[C@@](O)(O2)C(=O)C(=O)N2CCCC[C@H]2C(=O)O[C@H]([C@H](C)C[C@@H]2CC[C@@H](O)[C@H](OC)C2)CC(=O)[C@H](C)/C=C(\C)[C@@H](O)[C@@H](OC)C(=O)[C@H](C)C[C@H](C)/C=C/C=C/C=C/1C` [I-120, (22E,24E,26E,27E,33R,34S,35R,36R,38S,40S,43S,44R,45R,54R)-44, 54-dihydroxy-43-[(1R)-2-[(1S,3R,4R)-4-hydroxy-3-methoxy-cyclohexyl]-I-methyl-ethyl]-45-methoxy-42-[S-2-(2-methoxyethoxy)ethoxy]-33,34,35,36,46,47-hexamethyl-64,65-dioxa-55-azatricyclohexatriaconta-22, 24,26(46),27(47)-tetraene-48,49,50,51,52-pentone]: < 0.1 nM and “YES”.
In the same order, the values of `CO[C@@H]1C[C@H](C[C@@H](C)[C@@H]2CC(=O)[C@H](C)/C=C(\C)[C@@H](O)[C@@H](OC)C(=O)[C@H](C)C[C@H](C)/C=C/C=C/C=C(\C)[C@H](OCC3COCCOCCOCCOCCO3)C[C@@H]3CC[C@@H](C)[C@@](O)(O3)C(=O)C(=O)N3CCCC[C@H]3C(=O)O2)CC[C@H]1O` (stereo partly drawn) [I-107, (30E,32E,34E,35E,38R,39S,40R,41R,43S,45S,47R,48S,50R,51R,60R)-50, 60-dihydroxy-48-[(1R)-2-[(1S,3R,4R)-4-hydroxy-3-methoxy-cyclohexyl]-1-methyl-ethyl]-51-methoxy-38, 39,40,41,52,53-hexamethyl-47-(1,4,7,10,13-pentaoxacyclopentadec-2-ylmethoxy)-75, 76-dioxa-61-azatricyclohexatriaconta-30,32,34(52),35(53)-tetraene-54,55,56,57,58-pentone] are ≥ 100 nM and “YES”.
In the same order, the values of `CO[C@@H]1C[C@H](C[C@@H](C)[C@@H]2CC(=O)[C@H](C)/C=C(\C)[C@@H](O)[C@@H](OC)C(=O)[C@H](C)C[C@H](C)/C=C/C=C/C=C(\C)[C@H](OCCOCCOCCO)C[C@@H]3CC[C@@H](C)[C@@](O)(O3)C(=O)C(=O)N3CCCC[C@H]3C(=O)O2)CC[C@H]1OCCO` [I-109, (21E,23E,25E,26E,36R,37S,38R,39R,41S,43S,45R,46S,47R,48R,57R)-47, 57-dihydroxy-45-[2-[2-(2-hydroxyethoxy)ethoxy]ethoxy]-46-[(1R)-2-[(1S,3R, 4R)-4-(2-hydroxyethoxy)-3-methoxy-cyclohexyl]-1-methyl-ethyl]-48-methoxy-36,37,38,39,49,50-hexamethyl-68, 69-dioxa-58-azatricyclohexatriaconta-21,23,25(49),26(50)-tetraene-51,52,53,54,55-pentone] are 1 to 10 nM and “YES”.
Consider `CO[C@@H]1CC(C[C@@H](C)C2CC(=O)[C@H](C)/C=C(\C)[C@@H](O)[C@@H](OC)C(=O)[C@H](C)C[C@H](C)/C=C/C=C/C=C(\C)C(OCCCC(=O)N(C)C)C[C@@H]3CC[C@@H](C)[C@@](O)(O3)C(=O)C(=O)N3CCCC[C@H]3C(=O)O2)CC[C@H]1OCCO` (stereo partly drawn) [I-69, 4-[[(23E, 25E,27E,28E,35R,36S,37R,38R,40S,42S,45S,46R,47R,57R)-46,57-dihydroxy-45-[(1R)-2-[(1S, 3R,4R)-4-(2-hydroxyethoxy)-3-methoxy-cyclohexyl]-1-methyl-ethyl]-47-methoxy-35, 36,37,38,48,49-hexamethyl-50,51,52,53,54-pentaoxo-69,70-dioxa-58-azatricyclohexatriaconta-23, 25,27(48),28(49)-tetraen-44-yl]oxy]-N,N-dimethyl-butanamide], for which the concentration for half-maximal inhibition (IC50) in assay [1] is 0.1 to 1 nM. Also, the “mTORC1 selective @ 24 hrs” value in the assay with mTORC1 over mTORC2 is “YES”.
In the same order, the values of `CO[C@@H]1C[C@H](C[C@@H](C)[C@@H]2CC(=O)[C@H](C)/C=C(\C)[C@@H](O)[C@@H](OC)C(=O)[C@H](C)C[C@H](C)/C=C/C=C/C=C(\C)[C@H](OCC3COCCOCCOCCO3)C[C@@H]3CC[C@@H](C)[C@@](O)(O3)C(=O)C(=O)N3CCCC[C@H]3C(=O)O2)CC[C@H]1O` (stereo partly drawn) [I-111, (28E,30E,32E,33E,36R,37S,38R,39R,41S,43S,45R,46S,48R,49R,58R)-48, 58-dihydroxy-46-[(1R)-2-[(1S,3R,4R)-4-hydroxy-3-methoxy-cyclohexyl]-1-methyl-ethyl]-49-methoxy-36, 37,38,39,50,51-hexamethyl-45-(1,4,7,10-tetraoxacyclododec-2-ylmethoxy)-72,73-dioxa-59-azatricyclohexatriaconta-28, 30,32(50),33(51)-tetraene-52,53,54,55,56-pentone] are 1 to 10 nM and “YES”.
In the same order, the values of `CNC(=O)CCCO[C@@H]1C[C@@H]2CC[C@@H](C)[C@@](O)(O2)C(=O)C(=O)N2CCCC[C@H]2C(=O)O[C@H]([C@H](C)C[C@@H]2CC[C@@H](OCCO)[C@H](OC)C2)CC(=O)[C@H](C)/C=C(\C)[C@@H](O)[C@@H](OC)C(=O)[C@H](C)C[C@H](C)/C=C/C=C/C=C/1C` [I-59, 4-[[(22E,24E,26E,27E,34R,35S,36R,37R,39S,41S,43R,44S,45R,46R,56R)-45, 56-dihydroxy-44-[(1R)-2-[(1S,3R,4R)-4-(2-hydroxyethoxy)-3-methoxy-cyclohexyl]-1-methyl-ethyl]-46-methoxy-34, 35,36,37,47,48-hexamethyl-49,50,51,52,53-pentaoxo-68,69-dioxa-58-azatricyclohexatriaconta-22, 24,26(47),27(48)-tetraen-43-yl]oxy]-N-methyl-butanamide] are ≥ 100 nM and “YES”.
Take `CO[C@@H]1C[C@H](C[C@@H](C)[C@@H]2CC(=O)[C@H](C)/C=C(\C)[C@@H](O)[C@@H](OC)C(=O)[C@H](C)C[C@H](C)/C=C/C=C/C=C(\C)[C@H](OCCOCCO)C[C@@H]3CC[C@@H](C)[C@@](O)(O3)C(=O)C(=O)N3CCCC[C@H]3C(=O)O2)CC[C@H]1OCCOCCO` [Compound I-66]: the IC50 in assay [1] was in the range of 1 to 10 nM.
